Data published in patent US20040062743A1, “Acid-containing desensitization agents for teeth” (priority 2002, published 2004).

What was measured:
[1] = tested on: horse serum diluted with physiological common-salt solution, 2 mM CaCl2 (simulated dentinal fluid); test: Measurement of the protein precipitation (weight of dried precipitate); assay type: biochemical; conditions: for Precipitate: average of 5 measurements
Method: Furthermore, acids which also have calcium-precipitating properties in addition to protein-precipitating properties are particularly preferred. Protein and calcium-precipitating properties are detected in standardized tests. Protein precipitation is measured as described in Example 6, the acids to be examined in the solution described in Example 5 (2nd component) being present in a concentration of 0.2 M. The acid-containing solution is mixed with the protein solution described in Example 6 and the mass of the obtained precipitate is determined. According to the invention, acids which yield a pellet weight of >25 mg, preferably >30 mg and in particular >40 mg are preferred. The upper limit of the pellet weight is determined by the masses of the components used. Acids which yield a quantitative precipitation under the described conditions are particularly suitable according to the invention.
Furthermore, CaCl2 (2 mM) was added to the diluted protein solution in order to adjust the calcium-ion concentration to that of dentinal fluid.
500 μl of the protein solution was then reacted with […] of the composition to be tested and the mixture was left to stand for 30 minutes at room temperature, centrifuged and the obtained precipitates dried at 75° C. and weighed.
For protein precipitation, the solution (2nd component) described in Example 5 was used which was reacted with phosphonic acid in concentrations of 10 mM to 200 mM (cf. Table 1). 5 precipitations per concentration were carried out and then the average of the determinations was calculated.

SMILES: C=C(COCCP(=O)(O)O)C(=O)O [Example 1, 2-[4-(dihydroxyphosphoryl)-2-oxa-butyl]-acrylic acid]
- melting point: 119 to 120 °C
- Protein precipitation (in words) ([1]; 150 mM acid): quantitative
- Precipitate ([1]; acid concentration 10 mM in solution (2nd component) of Example 5): 55.3 mg
- Precipitate ([1]; acid concentration 25 mM in solution (2nd component) of Example 5): 58.2 mg
- Precipitate ([1]; acid concentration 50 mM in solution (2nd component) of Example 5): 58.8 mg
- Precipitate ([1]; acid concentration 75 mM in solution (2nd component) of Example 5): 69.1 mg
- Precipitate ([1]; acid concentration 100 mM in solution (2nd component) of Example 5): 70.8 mg
- Precipitate ([1]; acid concentration 150 mM in solution (2nd component) of Example 5): 74.2 mg
- Precipitate ([1]; acid concentration 200 mM in solution (2nd component) of Example 5): 72.3 mg
